Where two headings read alike, the source gives them in different places.
Columns and labels:
[1] = Pharmacokinetic profile in mice, plasma and brain, oral administration; type: in vivo, C57BL6 mice; settings: 10 mg/kg; for AUC(0-inf) / half-life / Cmax / Kp: C57BL6, mouse; for Kp: brain/plasma, read-out: Brain to Plasma AUC ratio, mean ratio
Experimental: In order to investigate the pharmacokinetics (PK) properties of the compound of Example 1 and the compounds of comparative examples, the following experiment was performed. In order to perform the PK test for the compound of Example 1 and the compounds of the comparative examples ([…]), about 7 week-old C57BL6 mice were prepared, 12 individuals were assigned per administered substance, separated into groups, and starved for oral administration. On the day of administration, a drug solution was prepared at a concentration of 1 mg/mL by using distilled water (DW) as a vehicle and was orally administered at […] body weight of each individual, and the final dose was 10 mg/kg. At 1, 3, 8, and 24 hours after the administration, whole blood was collected through cardiac blood collection from each of the 3 individuals in each group and then placed in a heparin tube to prevent coagulation. Thereafter, the cerebrum of each individual was collected and placed in an EP tube, the weight of the tissue was measured, and frozen storage was performed at -20° C. […] In this case, AN included an internal standard. […] After 0.5 μL of the supernatant obtained after deproteinization was injected into LC-MS/MS, peak areas of the compounds of the example and the comparative examples ([…]) were corrected with the peak areas of IS to obtain the peak response at each sample collection point and perform the concentration conversion by a calibration curve. The pharmacokinetic parameters (Cmax, AUCinf, t1/2, and the like) were calculated by a noncompartmental analysis method by using WinNonlin 8.1 for the values of the blood concentration with time for each administration group. The pharmacokinetic characteristics of each compound were compared by comparing exposure, half-life changes, and the like for each drug administration group, and the resultant values are shown in Tables 5 and 6.

MC4R = MC4R (Homo sapiens, UniProt P32245); experiment: cAMP assay (cAMP Hunter Gs-coupled CHO-K1 cell line); type: cell-based; set-up: expressed in transfected cells; host or cells: CHO-K1 (cAMP Hunter Gs-coupled cell line); settings: CHO-K1 cells overexpressing MC4R, 30 min at 37° C.
Text: The melanocortin receptor is a type of G-protein coupled receptor (GPCR), and the main role of G-protein is to activate secondary transducers to regulate cellular responses to many physiological stimuli through signal transduction. MC4R is a Gs-coupled receptor, and it is known that if MC4R interacts with an agonist, adenylate cyclase (AC) is activated to increase the concentration of cyclic AMP (cAMP), which is one of the secondary transducers in cells. Therefore, it is possible to evaluate the activity of melanocortin receptors by measuring the generation of cAMP signals.
After cAMP Hunter Gs-coupled cell lines (CHO-K1 cell line) in which each of MC1R, MC3R, MC4R and MCSR was overexpressed were established so that the increase in the cAMP level in cells due to agonist reaction was measurable, the cells were inoculated into each well of a white cell culture plate and incubated for 24 hours in a 37° C. incubator in the presence of 5% CO2. After the incubation, the medium was removed, and 15 μl of a 2:1 HBBS/10 mM HEPES:cAMP XS+Ab reagent was added. After 5 μl of the sample diluted 4 times with buffer was added, the vehicle concentration was set to 1%, and the MC4R agonist compound diluted at each step concentration was added, followed by reaction at 37° C. for 30 minutes. The activity (%) of each agonist compound is expressed as 100%×(average RLU value of sample−average RLU value of vehicle control)/(average RLU value of max control−average RLU value of vehicle control), and the value was analyzed by CBIS data analysis suite (ChemInnovation, CA).

[2] = test system: mouse obesity model induced by high fat diet; experiment: Mouse obesity model induced by high fat diet; type: in vivo, C57BL/6Ntaconic mice; settings: oral once a day, high-fat-diet obese mice
Experimental: The effect of melanocortin-4 receptor agonists on obesity was evaluated by using the mouse obesity model induced with a high fat diet.
Five-week-old male C57BL/6Ntaconic mice were fed with a 60 kcal % fat diet (D12492, Research Diet.) for 15 weeks to induce obesity. The compound of Example 1, the compounds of the comparative examples (A95 and A96), and sibutramine as a positive control were prepared in distilled water and orally administered to […] mouse obesity models induced by a high-fat diet once a day from day 1 to day 16. From Day 1 to Day 16, the body weight was measured once a day, the dietary intake was measured five times a week, and drinking water intake was measured twice a week. Blood glucose and glycated hemoglobin were measured on Day 15, and all animals were sacrificed on Day 17. Blood was collected through the abdominal vena cava, and the liver and epididymal adipose tissues were removed and weighed. The collected blood was placed in a heparin tube and centrifuged to separate plasma, and then plasma biochemical analysis was performed.

[3] = brain, read-out: t1/2, Brain (converted)
[4] = plasma, read-out: AUCinf, Plasma
[5] = plasma, read-out: t1/2, Plasma (converted)

Chain of MC4R (P32245 whole entry, species assumed): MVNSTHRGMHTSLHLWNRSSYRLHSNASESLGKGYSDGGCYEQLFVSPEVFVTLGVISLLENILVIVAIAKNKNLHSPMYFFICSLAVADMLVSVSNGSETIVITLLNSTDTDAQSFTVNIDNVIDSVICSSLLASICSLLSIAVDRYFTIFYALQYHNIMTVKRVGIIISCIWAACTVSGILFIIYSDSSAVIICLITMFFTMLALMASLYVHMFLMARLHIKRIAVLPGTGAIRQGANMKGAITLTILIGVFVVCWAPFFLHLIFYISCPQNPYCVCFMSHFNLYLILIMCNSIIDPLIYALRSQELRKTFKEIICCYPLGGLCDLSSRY

SMILES | Cmax, Brain ([1]; brain) [ng/mL] | AUC(0-inf) ([1]; brain, read-out: AUCinf, Brain) [ng·h/mL] | half-life [1, 3] [h] | Cmax ([1]; plasma) [ng/mL] | AUC(0-inf) [1, 4] [ng·h/mL] | half-life [1, 5] [h] | Kp [1] | EC50 (MC4R) [nM] | Difference in weight change rate to vehicle ([2]; Day 12, 10 mg/kg) [%] | Difference in weight change rate to vehicle ([2]; Day 12, 30 mg/kg) [%]
CC(=O)N(C1CCC(C)(C)CC1)[C@H]1C[C@@H](C(=O)N2CCOCC2)N(C(=O)[C@@H]2CN(C(C)(C)C)C[C@H]2c2ccc(F)cc2F)C1.Cl [Comparative Example 1 (A95), N-((3S,5S)-1-((3S,4R)-1-(tert-butyl)-4-(2,4-difluorophenyl)pyrrolidine-3-carbonyl)-5-(morpholine-4-carbonyl)pyrrolidin-3-yl)-N-(4,4-dimethylcyclohexyl)acetamide hydrochloride] | 20 | 222 | 6 | 205 | 565 | 2.7 | 0.39 | 335 | −4.8 | −4.0
CC(=O)N(C1CCC(C)(C)CC1)[C@H]1C[C@@H](C(=O)N2CCOCC2)N(C(=O)[C@@H]2CN(C(C)(C)C)C[C@H]2c2ccc(Cl)cc2)C1.Cl [Comparative Example 2 (A96), N-((3S,5S)-1-((3S,4R)-1-(tert-butyl)-4-(4-chlorophenyl)pyrrolidine-3-carbonyl)-5-(morpholine-4-carbonyl)pyrrolidin-3-yl)-N-(4,4-dimethylcyclohexyl)acetamide hydrochloride] | 27.1 | 530 | 8 | 337 | 1650 | 2.6 | 0.32 | 150 | −0.2 | −7.1
CC(C)C(=O)N([C@H]1C[C@@H](C(=O)N2CCOCC2)N(C(=O)[C@@H]2CN(C(C)(C)C)C[C@H]2c2ccc(Cl)cc2)C1)[C@H]1CC[C@@H](C)CC1.Cl [Example 1, N-((3S,5S)-1-((3S,4R)-1-(tert-butyl)-4-(4-chlorophenyl)pyrrolidine-3-carbonyl)-5-(morpholine-4-carbonyl)pyrrolidin-3-yl)-N-((1s,4R)-4-methylcyclohexyl)isobutyramide hydrochloride] | 49.1 | 1500 | 19 | 232 | 2070 | 3.9 | 0.72 | 36.5 |  | 

Source: patent publication US20220289731A1, “MELANOCORTIN-4 RECEPTOR AGONISTS” (LG CHEM, LTD., priority 2019, published 2022)
